Results as given in BindingDB's records for patent US12509424 (Nippon Shinyaku, 2025).

Biological target: Platelet-derived growth factor receptor beta (Homo sapiens, UniProt P09619)
Assay: PDGFR-β Tyrosine Kinase Inhibitory Action
Procedure: This DMSO solution was diluted by 8 times with an assay buffer 1 (50 mM HEPES (pH 7.0), 0.02% NaN3, 0.01% Bovine Serum Albumin, 0.1 mM orthovanadate, 1 mM Dithiothreitol, 5 mM MgCl2, and 1 mM MnCl2) and further diluted by 5 times with an assay buffer 2 (50 mM HEPES (pH 7.0), 0.02% NaN3, 0.01% Bovine Serum Albumin, 0.1 mM orthovanadate, 1 mM Dithiothreitol, 5 mM MgCl2, 1 mM MnCl2, and 40 nM Supplemented Enzymatic Buffer (cisbio)).2. Measurement of PDGFR-β Tyrosine Kinase Inhibitory ActionFor the measurement, the HTRF KinEASE-TK kit from Cisbio Bioassays SAS was used. To a 384 well plate, the test substance solution was added at 4 μL each, then 2 μL of a PDGFR-β enzyme solution (final concentration of 1 ng/μL, Carna Biosciences, Inc.) and 4 μL of a substrate solution obtained by adding 0.6 μM ATP to TK substrate-3-biotin (cisbio) were added, and the solution was allowed to react at 30° C. for 30 minutes at a final concentration of the test substance being 0.01 to 10,000 nM.Thereafter, 10 μL of a detection solution (cisbio) was added to each well and allowed to react at 30° C. for 1 hour. The fluorescence intensity was measured with a microplate reader (Spectra Max M5, Molecular device).

Platelet-derived growth factor receptor beta, sequence (P09619 whole entry): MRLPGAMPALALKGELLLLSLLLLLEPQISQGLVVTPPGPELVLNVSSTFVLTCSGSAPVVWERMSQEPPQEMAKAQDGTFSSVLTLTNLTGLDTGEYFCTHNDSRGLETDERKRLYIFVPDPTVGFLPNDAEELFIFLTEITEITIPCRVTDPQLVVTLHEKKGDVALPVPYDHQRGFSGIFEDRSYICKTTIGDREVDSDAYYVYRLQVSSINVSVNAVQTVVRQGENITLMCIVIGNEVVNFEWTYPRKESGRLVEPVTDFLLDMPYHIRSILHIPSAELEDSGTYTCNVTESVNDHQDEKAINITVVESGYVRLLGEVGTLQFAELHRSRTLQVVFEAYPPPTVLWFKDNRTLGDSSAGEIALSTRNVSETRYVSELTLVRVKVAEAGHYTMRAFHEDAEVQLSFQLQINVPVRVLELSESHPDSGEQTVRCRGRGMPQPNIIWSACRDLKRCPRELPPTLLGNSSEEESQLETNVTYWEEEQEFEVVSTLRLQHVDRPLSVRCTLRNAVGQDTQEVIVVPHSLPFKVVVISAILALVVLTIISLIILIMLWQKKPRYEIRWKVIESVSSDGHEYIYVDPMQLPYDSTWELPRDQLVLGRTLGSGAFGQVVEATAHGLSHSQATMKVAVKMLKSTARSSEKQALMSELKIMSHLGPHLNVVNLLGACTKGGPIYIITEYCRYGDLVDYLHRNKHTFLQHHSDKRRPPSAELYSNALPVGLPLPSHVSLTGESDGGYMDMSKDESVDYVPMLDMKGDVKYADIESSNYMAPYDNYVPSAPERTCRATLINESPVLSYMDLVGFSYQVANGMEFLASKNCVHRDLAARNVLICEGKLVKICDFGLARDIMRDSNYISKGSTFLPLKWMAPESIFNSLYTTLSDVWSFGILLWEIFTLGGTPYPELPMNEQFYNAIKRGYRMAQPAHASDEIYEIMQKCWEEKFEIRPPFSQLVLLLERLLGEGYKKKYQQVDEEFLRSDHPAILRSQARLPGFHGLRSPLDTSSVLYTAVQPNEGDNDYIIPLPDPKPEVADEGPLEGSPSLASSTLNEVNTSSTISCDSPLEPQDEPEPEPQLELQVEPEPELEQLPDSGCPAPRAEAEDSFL

IC50: 66 nM
Compound: CC(=O)Nc1ccc(CNc2cc(C(=O)N[C@H]3CCCC[C@@H]3O)ccc2C)cn1 [US12509424, Example 116]
